Converted amounts (≈) assume the structure as drawn.
Assays:
Test in all cases: Cytotoxicity assay, MTT colorimetric method
Format in all cases: cell-based
Hep3B = Hep3B human liver cancer cell line; 72 hrs treatment; cell viability by MTT
Experimental: (§1) Human liver (HepG2 and Hep3B), breast (MCF-7 and MDA-MB-231), and lung (A549) cancer cell lines were propagated in RPMI-1640 medium supplement with 10% (v/v) FBS, 100 U/mL penicillin and 100 µg/mL streptomycin at 37°C in a humidified atmosphere of 5% CO2 and 95% air. The culturing medium is changed every three days. Upon confluency, cells were subcultured to confluency, and used for experiments. The experimental period is determined according to the aim of experiment.
(§2) Cytotoxicity is measured by the MTT colorimetric method. Cells were seeded at densities of 5,000 - 10,000 cells/well in 96-well tissue culture plates. On day two, cells are treated with test compounds for another 72 hrs. After drug treatment, attached cells were incubated with MTT (0.5 mg/mL) for 1 hr and subsequently solubilized in DMSO. The absorbency at 550 nm is then measured using a microplate reader. The IC50 is the concentration of agent that reduces the cell viability by 50% under the experimental conditions, and the cytotoxic compound, Doxorubicin, is used as a positive control.

MCF-7 = MCF-7 human breast cancer cell line, 72 hrs treatment, cell viability by MTT; for IC50: MCF7
Experimental: as §1, §2

A549 = A549 human lung cancer cell line; 72 hrs treatment; cell viability by MTT
Experimental: as §1, §2

HepG2 = HepG2 human liver cancer cell line; 72 hrs treatment; cell viability by MTT
Experimental: as §1, §2

MDA-MB-231 = MDA-MB-231 human breast cancer cell line; 72 hrs treatment; cell viability by MTT
Experimental: as §1, §2

| SMILES | IC50 Hep3B (Hep3B) [µg/mL] | IC50 MCF-7 (MCF-7) [µg/mL] | IC50 A549 (A549) [µg/mL] | IC50 HepG2 (HepG2) [µg/mL] | IC50 MDA-MB-231 (MDA-MB-231) [µg/mL] | IC50 (Hep3B) [µg/mL] | IC50 (MCF-7) [µg/mL] | IC50 (A549) [µg/mL] | IC50 (HepG2) [µg/mL] | IC50 (MDA-MB-231) [µg/mL] |
| --- | --- | --- | --- | --- | --- | --- | --- | --- | --- | --- |
| COC1(c2cc(=O)c3c(C)cccc3o2)C=CC(=O)C=C1 [10b, 1'-methoxy-5-methylprotoflavonone] | 0.66 (≈ 2.34 µM) | 1.55 (≈ 5.49 µM) | 16.36 (≈ 58 µM) | 7.64 (≈ 27.1 µM) | 0.54 (≈ 1.91 µM) | – | – | – | – | – |
| COc1cccc2c1C(=O)c1c(O)c3c(c(O)c1C2=O)C[C@@](O)(C(=O)CO)C[C@@H]3O[C@H]1C[C@H](N)[C@H](O)[C@H](C)O1 [Doxorubicin, reference compound] | – | – | – | – | – | 0.36 (≈ 0.662 µM) | 0.43 (≈ 0.791 µM) | 0.21 (≈ 0.386 µM) | 0.29 (≈ 0.534 µM) | 0.08 (≈ 0.147 µM) |
| O=C1C=CC(O)(c2cc(=O)c3ccccc3o2)C=C1 [compound 8a, 2-(1-hydroxy-4-oxocyclohexa-2,5-dienyl)-4H-chromen-4-one] | – | – | – | – | – | 0.32 (≈ 1.26 µM) | 0.44 (≈ 1.73 µM) | 1.33 (≈ 5.23 µM) | 1.71 (≈ 6.73 µM) | 0.18 (≈ 0.708 µM) |
| COC1(c2cc(=O)c3ccccc3o2)C=CC(=O)C=C1 [compound 8b, 1'-methoxyprotoflavonoen] | – | – | – | – | – | 1.45 (≈ 5.41 µM) | 2.14 (≈ 7.98 µM) | > 20 | 10.9 (≈ 40.8 µM) | 1.47 (≈ 5.48 µM) |
| O=C1C=CC(O)(c2cc(=O)c3c(O)cccc3o2)C=C1 [compound 10a, 2-(1-hydroxy-4-oxocyclohexa-2,5-dienyl)-5-hydroxy-4H-chromen-4-one] | – | – | – | – | – | 0.35 (≈ 1.3 µM) | 0.93 (≈ 3.44 µM) | 1.37 (≈ 5.07 µM) | 1.34 (≈ 4.96 µM) | 0.18 (≈ 0.666 µM) |
| O=C1C=CC(O)(c2cc(=O)c3c(ccc4ccccc43)o2)C=C1 [compound 15a, 3-(1-hydroxy-4-oxocyclohexa-2,5-dienyl)-1H-benzo[f]chromen-1-one] | – | – | – | – | – | 0.09 (≈ 0.296 µM) | 0.2 (≈ 0.657 µM) | 0.55 (≈ 1.81 µM) | 1.08 (≈ 3.55 µM) | 0.12 (≈ 0.394 µM) |
| COC1(c2cc(=O)c3c(ccc4ccccc43)o2)C=CC(=O)C=C1 [compound 15b] | – | – | – | – | – | 0.35 (≈ 1.1 µM) | 0.86 (≈ 2.7 µM) | 8.2 (≈ 25.8 µM) | 3.16 (≈ 9.93 µM) | 0.37 (≈ 1.16 µM) |
| COc1cc(O)c2c(=O)cc(C3(O)C=CC(=O)C=C3)oc2c1 [compound 18a, 5-hydroxy-2-(1-hydroxy-4-oxocyclohexa-2,5-dienyl)-7-methoxy-4H-chromen-4-one] | – | – | – | – | – | 0.2 (≈ 0.666 µM) | 0.51 (≈ 1.7 µM) | 0.93 (≈ 3.1 µM) | 0.17 (≈ 0.566 µM) | 0.13 (≈ 0.433 µM) |
| O=C1C=CC(O)(c2cc(=O)c3c(O)cc(O)cc3o2)C=C1 [protoapigenone] | – | – | – | – | – | 0.65 (≈ 2.27 µM) | 1.07 (≈ 3.74 µM) | 3.96 (≈ 13.8 µM) | 2.32 (≈ 8.11 µM) | 0.41 (≈ 1.43 µM) |
